Measured values published in paper PMC6036174 (Frontiers in Microbiology, 2018).
Values joined by “and” are separate entries in the source; they are usually repeats but may differ in a detail not shown here. Identical values can stand only once.

How the values were obtained:
[1] = tested on: M. tuberculosis H37Rv (ATCC 27294); experiment: resazurin microtiter assay, MIC against M. tuberculosis H37Rv; format: cell-based, Mycobacterium tuberculosis; details: Mycobacterium tuberculosis, 168 h, 7 days 37°C, 90% inhibition of growth, read-out: MIC90
M. tuberculosis CDC1551 = experiment: broth tube MIC (visible pellet) against M. tuberculosis CDC1551; format: cell-based, Mycobacterium tuberculosis; details: Mycobacterium tuberculosis, 336 h; M. tuberculosis CDC1551; 14 days 37°C; no visible pellet; read-out: MIC100
M. smegmatis cells = tested on: M. smegmatis cells; parameters: method as in Wei et al., [2003]; details: ref Wei et al., [2003]; cited from earlier work
[2] = A549 cell cytotoxicity (MTT); details: human, A549 lung epithelial cells
[3] = VERO cell cytotoxicity (resazurin); details: African green monkey, VERO (ATCC CCL-81) normal epithelial cells
M. tuberculosis H37Rv = details: M. tuberculosis H37Rv; ref Poggi et al. ([2013]); cited from earlier work
[4] = parameters: method as in Poggi et al. ([2013]); details: descriptive; ref Poggi et al. ([2013]); cited from earlier work
G. mellonella larvae = experiment: in vivo toxicity in Galleria mellonella larvae; details: for % Mortality: 72 h post-injection
Experimental: G. mellonella larvae in the 6th developmental stage were used to determine the in vivo cytotoxicity of the test complexes (Kellett et al., [2011]; Desbois and Coote, [2012]; McCann et al., [2012]). Thirty healthy larvae, each weighing between 0.2 and 0.4 g and with no cuticle discolouration, were used for each experiment. Fresh solutions of the test complexes were prepared immediately prior to testing under sterile conditions. Test compounds (0.05 g) were dissolved in DMSO (1 mL) and added to sterile water (9 mL) to give a stock solution/suspension (5,000 μg/mL). Test solutions/suspensions were prepared from the corresponding stock solution using Millipore water only to dilute to the desired concentration and each compound was screened across the concentration range of 5,000–100 mg/L. Test solutions/suspensions (20 μL) were administered to the larvae by injection directly into the haemocoel through the last pro-leg. The base of the pro-leg can be opened by applying gentle pressure to the sides of the larvae and this aperture will re-seal after removal of the syringe without leaving a scar. Larvae were placed in sterile Petri dishes and incubated at 30°C for 72 h. The survival of the larvae was monitored every 24 h. Death was assessed by the lack of movement in response to stimulus together with discolouration of the cuticle. Three controls were employed in all assays. The first consisted of untouched larvae maintained at the same temperature as the test larvae. The second was larvae with the pro-leg pierced with an inoculation needle but no solution injected. The third control was larvae that were inoculated with 20 μL of sterile water.

MDR ATCC 49967 = tested on: MDR ATCC 49967; parameters: method as in Hoffman et al., [2013]; details: ref Hoffman et al., [2013]; cited from earlier work
M. tuberculosis = tested on: M. tuberculosis; parameters: method as in Oliveira et al., [2004]; details: based on Na3[Fe(CN)5(INH)]·4H2O; ref Oliveira et al., [2004]; cited from earlier work
mammalian cancer cells = tested on: mammalian cancer cells; parameters: method as in Oliveira et al., [2004]; details: ref Oliveira et al., [2004], read-out: IC50 cytotoxicity; cited from earlier work

Molecule: NNC(=O)c1ccncc1 [INH, Isoniazid, reference compound]
- MIC90 [1]: 0.44 µM and 0.06 µg/mL
- MIC (M. tuberculosis CDC1551): 0.44 µM and 0.06 µg/mL
- MIC (M. smegmatis cells): > 30 mg/mL and > 218.76 mM
- IC50 at 48 h [2]: 319 µg/mL and 2.33 mM
- IC50 at 24 h [3]: 333 µg/mL and 2.43 mM

Molecule: NNC(=O)c1ccncc1.O.O.O.O=S(=O)([O-])[O-].[Cu+2] [[Cu(INH)(H2O)]SO4·2H2O]
- MIC (M. tuberculosis H37Rv): 2.2 µM
- solubility in water [4]: only very sparingly soluble in water

Molecule: c1cnc2c(c1)ccc1cccnc12 [phen, 1,10-phenanthroline, reference compound]
- MIC90 [1]: 11.2 µg/mL and 61.9 µM
- MIC (M. tuberculosis CDC1551): 3 µg/mL and 16.6 µM
- % Mortality (G. mellonella larvae; 10 μg per larvae (33.33 mg/kg)): 0%
- % Mortality (G. mellonella larvae; 20 μg per larvae (66.67 mg/kg)): 80%
- % Mortality (G. mellonella larvae; 40 μg per larvae (133.33 mg/kg)): 80%
- % Mortality (G. mellonella larvae; 100 μg per larvae (333.33 mg/kg)): 100%
- larvae survived (G. mellonella larvae; highest administered concentration 0.1 mg (333 mg/kg) per larvae): all of the larvae injected at this concentration with phen died
- In vivo G. mellonella tolerance order in μmol (G. mellonella larvae; rank, 1st = best tolerated, from Table 2): 5th
- In vivo G. mellonella tolerance order in μmol (Normalized against no. of phens) (G. mellonella larvae; rank, normalized with respect to phen content): 4th
- IC50 at 48 h [2]: 4.3 µg/mL and 23.9 µM
- IC50 at 24 h [3]: > 10 µg/mL and > 55.5 µM

Molecule: O=P([O-])([O-])OP(=O)([O-])[O-].[Co+2].[Co+2].c1cnc2c(c1)ccc1cccnc12.c1cnc2c(c1)ccc1cccnc12.c1cnc2c(c1)ccc1cccnc12.c1cnc2c(c1)ccc1cccnc12 [{[Co(phen)2]2(μ-P2O7)}]
- MIC (MDR ATCC 49967): 2.41 µM

Molecule: O=P([O-])([O-])OP(=O)([O-])[O-].[Cu+2].[Cu+2].c1cnc2c(c1)ccc1cccnc12.c1cnc2c(c1)ccc1cccnc12 [{[Cu(phen)]2(μ-P2O7)}]
- MIC (MDR ATCC 49967): 2.80 µM

Molecule: [CoCl(INH)2(H2O)]Cl·2.5H2O
- MIC (M. tuberculosis H37Rv): 0.41 µM
- solubility in water [4]: only very sparingly soluble in water

Molecule: [Fe(CN)5(INH)]^3−
- MIC (M. tuberculosis): 0.43 µM
- IC50 (mammalian cancer cells): > 54 µM
